From PMC7034089, “Synthesis of novel, DNA binding heterocyclic dehydroabietylamine derivatives as potential antiproliferative and apoptosis-inducing agents” (Drug Delivery, 2020)

What was measured:
Hela (cervix) cells = assay: MTT antiproliferative assay, Hela cells; type: cell-based; settings: Homo sapiens, 36 h incubation, read-out: IC50 ± SE, Hela
Method: (§1) Compounds L^1−L^10 were evaluated against human cancer cell lines Hela, HepG2, MCF-7, A549, and the normal cell HUVEC with the antiproliferative activities in vitro by MTT assay, and results are summarized as IC50 values in Table 3.
(§2) Hela, HepG2, MCF-7, A549, and HUVEC cells were used in the antiproliferative activity assay. Cancer cells were seeded in 96-well plates with a density of 10^4 cells per well, after 12 hours of incubation at 5% CO2 and 37 °C, the culture media was removed and cells were incubated with L^1−L^10 dissolved in DMEM at different concentrations (each concentration repeated 3 times) for 36 h at 5% CO2 and 37 °C. Subsequently, removed the culture media and the new culture medium containing MTT (1 mg/mL) was added, followed by incubating for 4 h to allow the formation of formazan dye (Xia et al., [2015]; Zhao et al., [2018]). After removing the medium, 200 μL DMSO was added to each well to dissolve the formazan crystals. Absorbance was measured at 595 nm in a microplate photometer. Cell viability values were determined (at least three times) according to the following formulae: cell viability (%) = the absorbance of experimental group/the absorbance of blank control group ×100%.

HepG2 (liver) cells = assay: MTT antiproliferative assay, HepG2 cells; type: cell-based; settings: Homo sapiens, 36 h incubation, read-out: IC50 ± SE, HepG2
Method: as §2

MCF-7 (breast) cells = assay: MTT antiproliferative assay, MCF-7 cells; type: cell-based; settings: Homo sapiens, MCF7, 36 h incubation, read-out: IC50 ± SE, MCF-7
Method: as §1, §2

A549 (lung) cells = assay: MTT antiproliferative assay, A549 cells; type: cell-based; settings: Homo sapiens, 36 h incubation, read-out: IC50 ± SE, A549
Method: as §1, §2

[1] = test system: HUVEC (umbilical vein) cells; assay: MTT cytotoxicity assay, normal HUVEC cells; type: cell-based; settings: Homo sapiens, 36 h, 36 h incubation, read-out: IC50 ± SE, HUVEC (toxicity, normal cell)
Method: as §1, §2

pKb = type: physicochemical

| Compound | IC50 (Hela (cervix) cells) [µM] | IC50 (HepG2 (liver) cells) [µM] | IC50 (MCF-7 (breast) cells) [µM] | IC50 (A549 (lung) cells) [µM] | melting point [°C] | pKb (pKb) | IC50 [1] [µM] |
| --- | --- | --- | --- | --- | --- | --- | --- |
| CC(C)c1ccc2c(c1)CCC1C(C)(CN=Cc3cccs3)CCCC21C (stereo not shown) [L^1, 2-thiophene-dehydroabietylamine-Schiff-base] | 9.02 ± 0.25 | 0.66 ± 0.02 | 5.33 ± 0.16 | 2.11 ± 0.06 |  |  | 5.98 |
| CC(C)c1ccc2c(c1)CCC1C(C)(CNC(=O)c3cnccn3)CCCC21C (stereo not shown) [L^7, 2-pyrazine-acyl-dehydroabietylamine] | 43.5 ± 1.34 | 24 ± 1.33 | 11.8 ± 0.54 | 83.6 ± 15.7 | 159.8 to 162.3 |  | 66.8 ± 2.6 |
| Cc1cnc(C(=O)NCC2(C)CCCC3(C)c4ccc(C(C)C)cc4CCC23)cn1 (stereo not shown) [L^9, 5–methyl-2-pyrazine-acyl-dehydroabietylamine] | 52.5 ± 0.54 | 44.9 ± 0.75 | 6.66 ± 0.24 | > 100 | 130.7 to 133.4 |  | 18.9 ± 1.72 |
| Cc1ccsc1C=NCC1(C)CCCC2(C)c3ccc(C(C)C)cc3CCC12 (stereo not shown) [L^2, 3-methyl-2-thiophene-dehydroabietylamine-Schiff-base] | 59.52 ± 0.27 | 28.78 ± 0.19 | 14.5 ± 2.48 | > 100 | 38.2 to 39.1 |  | 34 ± 1.57 |
| COc1cnc(C(=O)NCC2(C)CCCC3(C)c4ccc(C(C)C)cc4CCC23)cn1 (stereo not shown) [L^8, 5-methoxyl-2-pyrazine-acyl-dehydroabietylamine] | 20.2 ± 0.89 | 17.06 ± 0.07 | 8.81 ± 0.54 | 36 ± 2.18 |  |  | 95.1 ± 0.97 |
| CC(C)c1ccc2c(c1)CCC1C(C)(CN)CCCC21C (stereo not shown) [L^0, dehydroabietylamine] | 2.02 ± 0.02 | 2.56 ± 0.04 | 19.4 ± 0.39 | 5.02 ± 0.19 |  |  | 1.27 ± 0.03 |
| CC(C)c1ccc2c(c1)CCC1C(C)(CN=Cc3ccc(Br)s3)CCCC21C (stereo not shown) [L^3, 5-bromine-2-thiophene-dehydroabietylamine-Schiff-base] | 54.38 ± 0.38 | 1.63 ± 0.39 | 2.65 ± 0.07 | 95.5 ± 2.48 |  |  | 16.6 ± 1.08 |

More lines, main results first:

| IC50 (Hela (cervix) cells) [µM] | IC50 (HepG2 (liver) cells) [µM] | IC50 (MCF-7 (breast) cells) [µM] | IC50 (A549 (lung) cells) [µM] | melting point [°C] | pKb (pKb) | Compound | IC50 [1] [µM] |
| --- | --- | --- | --- | --- | --- | --- | --- |
| > 100 | 56.1 ± 6.11 | 88.8 ± 3.46 | 39.6 ± 1.74 | 152.4 to 154.5 |  | CC(C)c1ccc2c(c1)CCC1C(C)(CNC(=O)c3cnc(Cl)cn3)CCCC21C (stereo not shown) [L^10, 5-chloro-2-pyrazine-acyl-dehydroabietylamine] | 29.4 ± 2.35 |
| 3.55 ± 0.17 | 1.2 ± 0.04 | 14 ± 1.03 | 3.35 ± 0.69 |  | 5.80 | COc1cccc2c1C(=O)c1c(O)c3c(c(O)c1C2=O)C[C@@](O)(C(=O)CO)C[C@@H]3O[C@H]1C[C@H](N)[C@H](O)[C@H](C)O1 [DOX, Doxorubicin, reference compound] | 4.4 ± 0.55 |
| 14.8 ± 0.22 | 46 ± 1.13 | 8.21 ± 0.65 | > 100 |  |  | CC(C)c1ccc2c(c1)CCC1C(C)(CNC(=O)c3cccs3)CCCC21C (stereo not shown) [L^4, 2–thiophene-acyl-dehydroabietylamine] | > 100 |
| > 100 | 51.4 ± 2 | 55.6 ± 2.56 | 94.4 ± 2.56 | 170.7 to 173.2 |  | CC(C)c1ccc2c(c1)CCC1C(C)(CNC(=O)c3ccc(Br)s3)CCCC21C (stereo not shown) [L^6, 5-bromine-2-thiophene-acyl-dehydroabietylamine] | 75.5 ± 12.4 |
| > 100 | 53.1 ± 1.95 | 8.27 ± 0.21 | > 100 | 169.4 to 171.7 |  | Cc1ccc(C(=O)NCC2(C)CCCC3(C)c4ccc(C(C)C)cc4CCC23)s1 (stereo not shown) [L^5, 5-methyl-2-thiophene-acyl-dehydroabietylamine] | > 100 |
